Measured values: paper PMC11589483, “Preparation and anti-colon cancer effect of a novel curcumin analogue (CA8): in vivo and in vitro evaluation” (Frontiers in Pharmacology, 2024)
Where two headings read alike, the source gives them in different places.

Assays:
KM mice = test: Acute toxicity experiment; format: in vivo; set-up: ALT / AST / ALP / CREA / UA / UREA: unit not given here; settings: for tolerated dose: male, KM, 8 days; for ALP / ALT / AST / CREA / UA / UREA: serum, KM mice, Mean ± SE, n = 3
Protocol: All in vivo experimental protocols were approved by the animal care committee of the Southwest Medical University and conducted in strict accordance with the laboratory animal care and use of the adopted guidelines. […] Twenty-one male KM mice were obtained from the Animal Center of Southwest Medical University and subjected to 1 week of acclimatization before the experiment. Then, the mice were randomly divided into the different groups. CA8 was administered via intraperitoneal injection and oral administration to assess its safety. The oral and injection doses were 5, 50, and 300 mg/kg and 2, 10, and 50 mg/kg, respectively. The body weight of all animals was recorded every day, and their blood samples were collected to analyze relevant biochemical indicators on the 8th day of the experiment. The heart, liver, and kidney tissues of the mice were collected, embedded in paraffin, cut into slices, stained with hematoxylin and eosin (HE), and observed under a light microscope to determine potential pathological changes.

liver cancer cells HepG2 = test: MTT antiproliferative assay, HepG2; format: cell-based; settings: Homo sapiens
Protocol: (§1) The human cancer cell lines A549, HepG2, MCF-7, Caco-2, and HeLa and the normal human liver cell line LO2 were all obtained from Shanghai Cell Bank of China. All cells were cultured in RPMI 1640 or DMEM supplemented with 10% fetal bovine serum, 100 U/mL penicillin, and 100 μg/mL streptomycin and incubated at 37°C under 5% CO2 (HEPA incubator class100 Thermo company). The medium was replaced three times a week. Cells used in all were in the exponential growth phase.
(§2) The cell inhibition rate was evaluated using the MTT assay. Briefly, cells were seeded in a 96-well plate at a density of 3–4 × 10^3 cells per well and incubated at 37°C for 24 h. The MCACs to be tested were dissolved in dimethyl sulfoxide (DMSO, Merck, Germany) and diluted to five concentrations (3.75, 7.5, 15, 30, 60 μM/L) with RPMI 1640 medium, with each dose analyzed in quadruplicate. The concentration of DMSO was always maintained below 1‰, a concentration that is nontoxic to cells. After incubation for 24 or 48 h, MTT reagent (5 mg/mL) was added to each well and the samples were incubated for 3 h at 37°C in the dark. The absorbance of formazan crystals dissolved in 150 µL of DMSO was measured at 570 nm using a microplate reader to identify the cytotoxic effect of the analogues.

Caco-2 cells = test: Clonogenic assay; format: cell-based, human; settings: 4, 8, or 16 μM/L, 6 h exposure
Protocol: Caco-2 cells were seeded into a 6-well plate at a density of 1 × 10^3 cells per well and incubated overnight. Then, the medium was replaced, and CA8 was added at the prescribed concentrations (4, 8, or 16 μM/L). After 6 h, the drug-containing medium was replaced with RPMI 1640 medium.
Caco-2 cells in 6-well plates were incubated for 1–2 weeks until the appearance of the colonies, followed by staining with crystal violet and incubation for 1 h at room temperature. After staining, images were captured accordingly.

[1] = Pharmacokinetics evaluation after gavage; format: in vivo, Sprague Dawley (SD) rats; settings: SD rats
Protocol: After the evaluation of the safety of CA8, 10 male Sprague Dawley (SD) rats were randomly divided into the CA8 and CU groups for the pharmacokinetic test ([Ye et al., 2020]). The rats were subjected to 1 week of adaptation and were fasted for 6 h before the experiment. CA8 (50 mg kg^−1) and CU (50 mg kg^−1) were administered via gavage. Blood samples were collected at 0.03, 0.08, 0.16, 0.25, 0.5, 1, 2, 4, 8 and 12 h and centrifuged at 5,000 rpm for 3 min to obtain the plasma. A mixture of ethyl acetate and methanol was then added to precipitate the proteins and separate the CA8 and CU from the plasma. The samples were then analyzed using HPLC.

[2] = system: cervical cancer cells HeLa; test: MTT antiproliferative assay, HeLa; format: cell-based; settings: Homo sapiens
Protocol: as §1, §2

[3] = system: colon cancer cells Caco-2; test: MTT antiproliferative assay, Caco-2; format: cell-based, human; settings: for SI Caco2: logarithm of ratio IC50 LO2 / IC50 cancer cells; for IC50: Homo sapiens, read-out: IC50 Caco2
Protocol: as §1, §2

In the case of COc1cc(/C=C2\CN(C(C)C)C/C(=C\c3cc(OC)c(O)c(OC)c3)C2=O)cc(OC)c1O [CA8], the “liver and kidney histopathology” value (KM mice; different doses, HE staining) is reported as “no significant pathological damage”, the tolerated dose (KM mice; mouse, in vivo, ip) is reported as at most 50 mg/kg and the tolerated dose (KM mice; mouse, in vivo, po) is reported as “up to 300 mg/kg”. For the same compound, the “morbidity, death, behavior” value (KM mice; mouse, in vivo) was “No morbidities and deaths occurred”, the ALP (KM mice; single injection dose 2 mg/kg) was 220.33 ± 47.16 and the ALT (KM mice; single injection dose 2 mg/kg) was 59.77 ± 3.00. The AST (KM mice; single injection dose 2 mg/kg) was 257.50 ± 114.60, the CREA (KM mice; single injection dose 2 mg/kg) was 17.13 ± 3.30 and the UA (KM mice; single injection dose 2 mg/kg) was 171.93 ± 1.10. The UREA (KM mice; single injection dose 2 mg/kg) was 6.84 ± 0.29, the ALP (KM mice; single injection dose 10 mg/kg) was 175.93 ± 95.23 and the ALT (KM mice; single injection dose 10 mg/kg) was 54.87 ± 3.50. For the same compound, the AST (KM mice; single injection dose 10 mg/kg) was 100.13 ± 28.26, the CREA (KM mice; single injection dose 10 mg/kg) was 11.60 ± 1.60 and the UA (KM mice; single injection dose 10 mg/kg) was 47.57 ± 14.59. It also gave a UREA (KM mice; single injection dose 10 mg/kg) of 6.84 ± 0.94, an ALP (KM mice; single injection dose 50 mg/kg) of 226.47 ± 65.98 and an ALT (KM mice; single injection dose 50 mg/kg) of 48.27 ± 2.77. For the same compound, the AST (KM mice; single injection dose 50 mg/kg) was 141.83 ± 50.47, the CREA (KM mice; single injection dose 50 mg/kg) was 12.13 ± 1.12 and the UA (KM mice; single injection dose 50 mg/kg) was 55.77 ± 13.47. It also gave a UREA (KM mice; single injection dose 50 mg/kg) of 9.19 ± 1.02, an ALP (KM mice; single oral dose 5 mg/kg) of 208.57 ± 19.55 and an ALT (KM mice; single oral dose 5 mg/kg) of 49.70 ± 5.25. The AST (KM mice; single oral dose 5 mg/kg) was 209.40 ± 69.21, the CREA (KM mice; single oral dose 5 mg/kg) was 10.34 ± 0.87 and the UA (KM mice; single oral dose 5 mg/kg) was 72.27 ± 18.54. The UREA (KM mice; single oral dose 5 mg/kg) was 6.70 ± 0.12, the ALP (KM mice; single oral dose 50 mg/kg) was 299.77 ± 72.56 and the ALT (KM mice; single oral dose 50 mg/kg) was 61.30 ± 1.30. For the same compound, the AST (KM mice; single oral dose 50 mg/kg) was 269.23 ± 67.81, the CREA (KM mice; single oral dose 50 mg/kg) was 12.50 ± 2.78 and the UA (KM mice; single oral dose 50 mg/kg) was 124.17 ± 19.83. The UREA (KM mice; single oral dose 50 mg/kg) was 6.53 ± 0.65, the ALP (KM mice; single oral dose 300 mg/kg) was 266.97 ± 26.38 and the ALT (KM mice; single oral dose 300 mg/kg) was 44.63 ± 11.95. For the same compound, the AST (KM mice; single oral dose 300 mg/kg) was 277.57 ± 160.53, the CREA (KM mice; single oral dose 300 mg/kg) was 12.90 ± 1.61 and the UA (KM mice; single oral dose 300 mg/kg) was 128.03 ± 33.61. For the same compound, the UREA (KM mice; single oral dose 300 mg/kg) was 7.80 ± 1.27, the “blood parameters ALT, AST, ALP, CREA, UA, UREA vs control” value (KM mice; single oral and injection doses) was “no significant difference” and the IC50 (liver cancer cells HepG2; HepG2, 24 h) was 1790 ± 1320 nM. The IC50 (liver cancer cells HepG2; HepG2, 48 h) was 1840 ± 330 nM, the “Caco-2 colony formation” value (Caco-2 cells) was “showed Caco-2 colony formation inhibition” and the “AUC (0-t) / bioavailability relative to CU” value ([1]; oral) was 6.23 fold. For the same compound, the “MRT (0-t) / mean residence time relative to CU” value ([1]; oral) was 3.35 fold, the “biological half-life relative to CU” value ([1]; oral) was 2.38 fold and the “time after dosing until cleared from / still detected in plasma” value ([1]; oral 50 mg kg^−1) was over 8 h. For the same compound, the “AUC(0-t)” value ([1]; oral (gavage) 50 mg kg^−1) was 222,562.75 μg/L*min, the CLz ([1]; oral (gavage) 50 mg kg^−1) was 190 mL/min/kg and the Vz ([1]; oral (gavage) 50 mg kg^−1) was 49.53 L/kg. For the same compound, the Cmax ([1]; male, Sprague Dawley, rat, plasma, oral (gavage) 50 mg kg^−1) was 1360 ng/mL, the MRT last ([1]; male, Sprague Dawley, rat, plasma, oral (gavage) 50 mg kg^−1, read-out: MRT(0-t) (converted)) was 3.02 h and the Tmax ([1]; male, Sprague Dawley, rat, plasma, oral (gavage) 50 mg kg^−1, read-out: Tmax (converted)) was 0.167 h. The half-life ([1]; male, Sprague Dawley, rat, plasma, oral (gavage) 50 mg kg^−1, read-out: t1/2z) was 2.98 h, the IC50 ([2]; 24 h) was 4260 ± 520 nM and the IC50 ([2]; 48 h) was 1960 ± 90 nM. The “SI Caco2” value ([3]; 24 h) was 0.02, the “cytotoxicity on Caco-2 cells compared with CU” value ([3]; 48 h) was 19.2 times and the “SI Caco2” value ([3]; 48 h) was 0.07. It also gave an IC50 ([3]; Caco-2, 24 h) of 4060 ± 890 nM and an IC50 ([3]; Caco-2, 48 h) of 1710 ± 60 nM.
